Read-outs that look alike come from different tables or passages of the source.
Assays:
[1] = system: weeds; assay: Post-emergence test (herbicidal action); format: in vivo; conditions: test plants of 5-15 cm sprayed, rated after three weeks
Procedure: Post-Emergence Test (Herbicidal Action)
(§1) To produce a suitable preparation of active compound, 1 part by weight of active compound is mixed with the stated amount of solvent, the stated amount of emulsifier is added and the concentrate is diluted with water to the desired concentration.
Test plants of a height of 5-15 cm are sprayed with the preparation of active compound such that the particular amounts of active compound desired are applied per unit area. The concentration of the spray liquor is chosen such that the particular amounts of active compound desired are applied in 1000 l of water/ha.
(§2) After three weeks, the degree of damage to the plants is rated in % damage in comparison to the development of the untreated control.

[2] = logP determination by reversed-phase HPLC (EEC Directive 79/831 Annex V.A8), acidic range; format: physicochemical
Procedure: The logP values given in the table were determined in accordance with EEC Directive 79/831 Annex V.A8 by HPLC (High Performance Liquid Chromatography) using a reversed-phase column (C 18). Temperature: 43° C.
(a) Mobile phases for the determination in the acidic range: 0.1% phosphoric acid, acetonitrile; linear gradient from 10% acetonitrile to 90% acetonitrile—the corresponding measurement results in Table 1 are marked a).
Calibration was carried out using unbranched alkan-2-ones (having 3 to 16 carbon atoms) with known logP values (determination of the logP values by the retention times using linear interpolation between two successive alkanones).

[3] = system: weeds; assay: Pre-emergence test (herbicidal action); format: in vivo; conditions: soil sprayed 24 hours after sowing, rated after three weeks
Procedure: Pre-Emergence Test (Herbicidal Action)
as §1
Seeds of the test plants are sown in normal soil. After 24 hours, the soil is sprayed with the preparation of active compound such that the particular amount of active compound desired is applied per unit area. The concentration of active compound in the spray liquor is chosen such that the particular amount of active compound desired is applied in 1000 litres of water per hectare.
as §2

[4] = pH 2, HPLC, C18 reversed-phase column, read-out: logP (pH 2)

Compound | logP a) (Table 1, Physical data) [2] | other results
1-(3-chloro-5-trifluoromethylpyridin-2-yl)-4-methoxy-6-cyclopropylpyrazolopyrimidin-4-one [Example 110] | (Ia) logP = 3.97^a) | herbicidal action against weeds (degree of damage) [1]: strong action against weeds; logP (pH 2) ([2]; pH 2): 3.97
O=c1[nH]cnc2c1cnn2-c1ncc(C(F)(F)F)cc1Cl [Example 1, 1-(3-chloro-5-trifluoromethylpyridin-2-yl)-1,5-dihydropyrazolo[3,4-d]pyrimidin-4-one] | – | melting point: 331 °C; chromatographic logP [2, 4]: 1.54
Cc1nc2c(cnn2-c2ncc(C(F)(F)F)cc2Cl)c(=O)[nH]1 [Example 7] | (I) logP = 1.64^a) | –
Cc1nc2c(cnn2-c2ncc(C(F)(F)F)cc2Cl)c(=O)n1C [Example 8] | (I) logP = 1.97^a) | herbicidal action against weeds (degree of damage) [3]: strong action against weeds
O=c1[nH]c(C(Cl)Cl)nc2c1cnn2-c1ncc(C(F)(F)F)cc1Cl [Example 12] | (I) logP = 2.39^a) | –
CCc1nc2c(cnn2-c2ncc(C(F)(F)F)cc2Cl)c(=O)[nH]1 [Example 13] | (I) logP = 2.39^a) | –
CC(C)c1nc2c(cnn2-c2ncc(C(F)(F)F)cc2Cl)c(=O)[nH]1 [Example 17] | (I) logP = 2.36^a) | –
CC(C)c1nc2c(cnn2-c2ncc(C(F)(F)F)cc2Cl)c(=O)n1C [Example 18] | (I) logP = 2.89^a) | herbicidal action against weeds (degree of damage) [1]: strong action against weeds; herbicidal action against weeds (degree of damage) [3]: strong action against weeds
CCCc1nc2c(cnn2-c2ncc(C(F)(F)F)cc2Cl)c(=O)[nH]1 [Example 23] | (I) logP = 2.28^a) | –
CCCc1nc2c(cnn2-c2ncc(C(F)(F)F)cc2Cl)c(=O)n1C [Example 24] | (I) logP = 2.81^a) | herbicidal action against weeds (degree of damage) [1]: strong action against weeds; herbicidal action against weeds (degree of damage) [3]: strong action against weeds
CC(C)Cc1nc2c(cnn2-c2ncc(C(F)(F)F)cc2Cl)c(=O)[nH]1 [Example 25] | (I) logP = 2.52^a) | –
CC(C)(C)c1nc2c(cnn2-c2ncc(C(F)(F)F)cc2Cl)c(=O)[nH]1 [Example 26] | (I) logP = 2.74^a) | –
COc1nc(C(C)(C)C)nc2c1cnn2-c1ncc(C(F)(F)F)cc1Cl [Example 27] | (Ia) logP = 2.74^a) | herbicidal action against weeds (degree of damage) [1]: strong action against weeds; herbicidal action against weeds (degree of damage) [3]: strong action against weeds
O=c1[nH]c(C(F)(F)F)nc2c1cnn2-c1ncc(C(F)(F)F)cc1Cl [Example 37] | (I) logP = 2.42^a) | –
Cn1c(C(F)(F)F)nc2c(cnn2-c2ncc(C(F)(F)F)cc2Cl)c1=O [Example 38] | (I) logP = 3.11^a) | –
COc1nc(C(F)(F)F)nc2c1cnn2-c1ncc(C(F)(F)F)cc1Cl [Example 39] | (Ia) logP = 3.99^a) | herbicidal action against weeds (degree of damage) [1]: strong action against weeds
CCOC(=O)COc1nc(C(F)(F)F)nc2c1cnn2-c1ncc(C(F)(F)F)cc1Cl [Example 42] | (Ia) logP = 4.05^a) | –
O=c1[nH]c(C(F)(F)Cl)nc2c1cnn2-c1ncc(C(F)(F)F)cc1Cl [Example 43] | (I) logP = 2.53^a) | –
O=c1[nH]c(C(F)(F)C(F)(F)F)nc2c1cnn2-c1ncc(C(F)(F)F)cc1Cl [Example 44] | (I) logP = 2.84^a) | –
CCOC(=O)c1nc2c(cnn2-c2ncc(C(F)(F)F)cc2Cl)c(=O)n1C [Example 46] | (I) logP = 2.74^a) | –
CCn1c(C2CC2)nc2c(cnn2-c2ncc(C(F)(F)F)cc2Cl)c1=O [Example 50] | (I) logP = 2.96^a) | –
CCOc1nc(C2CC2)nc2c1cnn2-c1ncc(C(F)(F)F)cc1Cl [Example 51] | (Ia) logP = 4.42^a) | –

Compound | logP a) (Table 1, Physical data) [2] | other results
CC(C)Oc1nc(C2CC2)nc2c1cnn2-c1ncc(C(F)(F)F)cc1Cl [Example 52] | (Ia) logP = 4.86^a) | –
C#CCn1c(C2CC2)nc2c(cnn2-c2ncc(C(F)(F)F)cc2Cl)c1=O [Example 56] | (I) logP = 2.95^a) | –
FC(F)Oc1nc(C2CC2)nc2c1cnn2-c1ncc(C(F)(F)F)cc1Cl [Example 57] | (Ia) logP = 4.24^a) | herbicidal action against weeds (degree of damage) [1]: strong action against weeds; herbicidal action against weeds (degree of damage) [3]: strong action against weeds
CCOC(=O)COc1nc(C2CC2)nc2c1cnn2-c1ncc(C(F)(F)F)cc1Cl [Example 58] | (Ia) logP = 3.88^a) | –
Cn1c(C2(F)CC2)nc2c(cnn2-c2ncc(C(F)(F)F)cc2Cl)c1=O [Example 59] | (I) logP = 2.82^a) | herbicidal action against weeds (degree of damage) [1]: strong action against weeds; herbicidal action against weeds (degree of damage) [3]: strong action against weeds
COc1nc(C2(F)CC2)nc2c1cnn2-c1ncc(C(F)(F)F)cc1Cl [Example 60] | (Ia) logP = 3.73^a) | herbicidal action against weeds (degree of damage) [1]: strong action against weeds; herbicidal action against weeds (degree of damage) [3]: strong action against weeds
O=c1[nH]c(C2CCC2)nc2c1cnn2-c1ncc(C(F)(F)F)cc1Cl [Example 63] | (I) logP = 2.46^a) | –
Cn1c(C2CCC2)nc2c(cnn2-c2ncc(C(F)(F)F)cc2Cl)c1=O [Example 64] | (I) logP = 3.03^a) | herbicidal action against weeds (degree of damage) [1]: strong action against weeds; herbicidal action against weeds (degree of damage) [3]: strong action against weeds
COc1nc(C(F)(F)F)nc2c1cnn2-c1ncc(Cl)cc1Cl [Example 72] | (Ia) logP = 3.76^a) | –
Cc1nc2c(cnn2-c2ccc(C(F)(F)F)cc2Cl)c(=O)n1C [Example 81] | (I) logP = 2.30^a) | –
CC(C)c1nc2c(cnn2-c2ccc(C(F)(F)F)cc2Cl)c(=O)n1C [Example 84] | (I) logP = 3.52^a) | –
Cc1nc2c(cnn2-c2nn(C)c(OC(F)F)c2Cl)c(=O)[nH]1 [Example 98] | (I) logP = 1.40^a)m.p. = 254 °C | –
Cc1nc2c(cnn2-c2nn(C)c(OC(F)F)c2Cl)c(=O)n1C [Example 99] | (I) logP = 1.68^a)m.p. = 199 °C | –
Cn1nc(-n2ncc3c(=O)[nH]c(C4CC4)nc32)cc1OC(F)F [Example 101] | (I) logP = 1.59^a) | –
Cn1nc(-n2ncc3c(=O)n(C)c(C4CC4)nc32)cc1OC(F)F [Example 102] | (I) logP = 1.90^a) | –
COc1nc(C2CC2)nc2c1cnn2-c1cc(OC(F)F)n(C)n1 [Example 103] | (Ia) logP = 3.02^a) | –
Cn1nc(-n2ncc3c(=O)[nH]c(C4CC4)nc32)c(Cl)c1OC(F)F [Example 106] | (I) logP = 1.85^a)m.p. = 210 °C | –
Cn1nc(-n2ncc3c(=O)n(C)c(C4CC4)nc32)c(Cl)c1OC(F)F [Example 107] | (I) logP = 2.21^a)m.p. = 220 °C | –
Cn1c(C2CC2)nc2c(cnn2-c2ncc(C(F)(F)F)cc2Cl)c1=O [Example 109, 1-(3-chloro-5-trifluoromethylpyridin-2-yl)-5-methyl-6-cyclopropyl-1,5-dihydropyrazolo[3,4-d]pyrimidin-4-one] | – | herbicidal action against weeds (degree of damage) [1]: strong action against weeds; herbicidal action against weeds (degree of damage) [3]: strong action against weeds; chromatographic logP [2, 4]: 2.61; chromatographic logP ([2]; reversed-phase HPLC column (C18); acidic range: 0.1% phosphoric acid, acetonitrile gradient; C18; 43° C.; read-out: logP a) (Table 1, Physical data)): 2.61
NC(=O)c1cnn(-c2ncc(Cl)cc2Cl)c1N [II-2] | – | logP a) (Table 2, Physical data) [2]: logP = 1.02^a)
CC(C)(C)C(=O)Nc1c(C(N)=O)cnn1-c1ncc(C(F)(F)F)cc1Cl [VI-2] | – | logP a) (Table 3, Physical data) [2]: logP = 2.20^a)
CC(C)(CCl)C(=O)Nc1c(C(N)=O)cnn1-c1ncc(C(F)(F)F)cc1Cl [VI-3] | – | logP a) (Table 3, Physical data) [2]: logP = 2.26^a)

Reference: US20050209251A1, “Substituted pyrazolo-pyrimidine-4-ones” (priority 2002, published 2005)
